Test results published in publication PMC12073635, “Synthesis of Tricyclic and Tetracyclic Lactone Derivatives of Thieno[2,3-b]pyrazine or Thieno[2,3-b]quinoline: Preliminary Antitumor and Antiparasitic Activity Evaluation” (Molecules, 2025).

What was measured:
[1] = SRB assay, toxicity in non-tumor PLP2 cells; assay type: cell-based, pig; settings: PLP2 primary pig liver cells (non-tumor); non-tumor primary pig liver cells, SRB assay, 72 h, mean ± standard deviation
Method: (§1) The antitumor potential of the Sonogashira coupling products 2, tricyclic lactones 3 and 5, and tetracyclic lactones 7 was evaluated using the sulforhodamine B (SRB) assay against five human tumor cell lines: colorectal adenocarcinoma (CaCo-2), breast adenocarcinoma (MCF-7), gastric adenocarcinoma (AGS), cervical carcinoma (HeLa), and non-small cell lung cancer (NCI-H460). A primary pig liver cell culture (PLP2) was used to assess the toxicity of compounds.
(§2) The human tumor cell lines used were CaCo-2 (colorectal adenocarcinoma), MCF-7 (breast adenocarcinoma), AGS (gastric adenocarcinoma), HeLa (cervical carcinoma), NCI-H460 (lung carcinoma). Non-tumor cell lines were also tested: PLP2 (primary pig liver culture). All the cell lines were maintained in RPMI-1640 medium supplemented with 10% fetal bovine serum, glutamine (2 mM), penicillin (100 U/mL), and streptomycin ([…]), with the exception of PLP2, which was maintained in DMEM medium supplemented with fetal bovine serum (10%), glutamine and antibiotics. The culture flasks were incubated at 37 °C and with 5% CO2, under a humid atmosphere. The cells were used only when they had 70 to 80% confluence. A known mass of each compound was dissolved in DMSO/H2O (1:1, 1 mL), in order to obtain the stock solutions with a concentration of 1 mM. […] Each compound concentration (10 μL) was incubated with the cell suspension (190 μL) of the cell lines tested in 96-well microplates for 72 h. The microplates were incubated at 37 °C and with 5% CO2 in a humid atmosphere after checking the adherence of the cells. All cell lines were tested at a concentration of 10,000 cells/well. After the incubation period, the cells were treated: TCA (10% w/v; 100 μL) was previously cooled, and plates were incubated for 1 h at 4 °C, washed with water, and, after drying, a SRB solution (0.057%, m/v; 100 μL) was added and left to stand at room temperature for 30 min. To remove non-adhered SRB, plates were washed three times with a solution of acetic acid (1% v/v) and placed to dry. Finally, an adhered SRB was solubilized with Tris (10 mM, 200 μL) and the absorbance at a wavelength of 540 nm was read in the Biotek ELX800 microplate reader. The results obtained by the SRB assay were expressed regarding the concentration compounds that can inhibit cell growth by 50%—GI50. Doxorubicin was used as a positive control.

[2] = system: PLP2 (primary pig liver cell culture); experiment: SRB assay, toxicity in non-tumor PLP2 cells; assay type: cell-based; settings: at the GI50 concentrations
Method: as §1, §2

[3] = system: T. brucei Lister 427 bloodstream forms; experiment: Resazurin-based anti-T. brucei assay; assay type: cell-based, Trypanosoma brucei; settings: 72 h, dose-response; for IC50: Trypanosoma brucei
Method: The antiparasitic activity of compounds 2c–g, 3a, 5a and 7 was evaluated at a single concentration of 20 μM, against Trypanosoma brucei (T. brucei) and Leishmania infantum (L. infantum) promastigotes. The results are shown in Table 9 together with the cytotoxicity data (CC50) in THP-1–derived macrophages cells.
T. brucei Lister 427 bloodstream forms were grown in a humidified incubator at 37 °C, 5% CO2 in complete HMI-9 medium 1 supplemented with 10% heat-inactivated Fetal Bovine Serum (FBS) and 100 UI/mL penicillin/streptomycin. Parasites maintenance was performed in T25 ventilated flasks by subpassage at a concentration of 1 × 10^4/mL every 2 days on T25 ventilated flasks.
The efficacy of compounds against T. brucei bloodstream forms was evaluated using a modified resazurin-based assay previously described in the literature. Parasites were added to 100 µL of serial dilutions of compounds in supplemented complete medium at a cell density of 5 × 10^3/mL for. As a quality control, a dose–response curve for the antitrypanosomal pentamidine was included in all the assays. The final volume of the assay is 200 µL/well. Each condition was carried out in duplicate. Following 72 h incubation at the specific conditions for T. brucei, 20 µL of a 0.5 mM resazurin solution was added and plates were incubated for a further 4 h under the same conditions. Fluorescence was measured at 544 nm and 590 nm excitation and emission wavelength, respectively, using a Synergy 2 Multi-Mode Reader (Biotek, Winooski, VT, USA). Results were shown as % of parasite growth inhibition compared to control (untreated parasites) and represent the average of at least three independent experiments. The effect was evaluated by the determination of the IC50 value (concentration required to inhibit growth in 50%) and calculated by non-linear regression curves using GraphPad Prism version 8.1.1 for Windows (GraphPad Software, San Diego CA, USA).

[4] = system: five human tumor cell lines (CaCo-2, MCF-7, AGS, HeLa, NCI-H460); experiment: SRB assay, statements over the five human tumor cell lines; assay type: cell-based; settings: text statement over CaCo-2, MCF-7, AGS, read-out: GI50 in all tested human tumor cell lines
Method: as §1
The human tumor cell lines used were CaCo-2 (colorectal adenocarcinoma), MCF-7 (breast adenocarcinoma), AGS (gastric adenocarcinoma), HeLa (cervical carcinoma), NCI-H460 (lung carcinoma). Non-tumor cell lines were also tested: PLP2 (primary pig liver culture). All the cell lines were maintained in RPMI-1640 medium supplemented with 10% fetal bovine serum, glutamine (2 mM), penicillin (100 U/mL), and streptomycin ([…]), with the exception of PLP2, which was maintained in DMEM medium supplemented with fetal bovine serum (10%), glutamine and antibiotics. The culture flasks were incubated at 37 °C and with 5% CO2, under a humid atmosphere. The cells were used only when they had 70 to 80% confluence. […] Finally, an adhered SRB was solubilized with Tris (10 mM, 200 μL) and the absorbance at a wavelength of 540 nm was read in the Biotek ELX800 microplate reader. […]

IC50 [3] [µM] | GI50 [4] [µM] | T. brucei IC50 [3] | Structure (SMILES) | GI50 at 72 h [1] [µM] | toxicity in PLP2 cells (in words) [2]
< 11 | < 10 |  | O=c1oc(-c2ccccn2)cc2c1sc1nccnc12 [Compound 3f, 8-(Pyridin-2-yl)-6H-pyrano[4′,3′:4,5]thieno[2,3-b]pyrazin-6-one] | > 125 | low toxicity
6.43 | < 10 | low μM range | COC(=O)c1sc2nccnc2c1C#Cc1ccccn1 [Compound 2f, Methyl 7-(pyridin-2-ylethynyl)thieno[2,3-b]pyrazine-6-carboxylate] | 57.9 ± 4.31 | without significant toxicity
